How the values were obtained:
Test in all cases: KINOMEscan competition binding
Conditions in all cases: compound 10.0 µM
ACVR2B (human) = ACVR2B (human) (UniProt Q13705)
ADCK3 (human) = ADCK3 (human) (UniProt Q8NI60)
BMX (human) = BMX (human) (UniProt P51813)
CDC2L2 (human) = CDC2L2 (human) (UniProt Q9UQ88)
CDK14 (human) = CDK14 (human) (UniProt O94921)
CDK9 (human) = CDK9 (human) (UniProt P50750)
CSNK1D (human) = CSNK1D (human) (UniProt P48730)
DAPK2 (human) = DAPK2 (human) (UniProt Q9UIK4)
DCLK3 (human) = DCLK3 (human) (UniProt Q9C098)
FER (human) = FER (human) (UniProt P16591)
Chain of FER (human) (P16591 whole entry, looked up): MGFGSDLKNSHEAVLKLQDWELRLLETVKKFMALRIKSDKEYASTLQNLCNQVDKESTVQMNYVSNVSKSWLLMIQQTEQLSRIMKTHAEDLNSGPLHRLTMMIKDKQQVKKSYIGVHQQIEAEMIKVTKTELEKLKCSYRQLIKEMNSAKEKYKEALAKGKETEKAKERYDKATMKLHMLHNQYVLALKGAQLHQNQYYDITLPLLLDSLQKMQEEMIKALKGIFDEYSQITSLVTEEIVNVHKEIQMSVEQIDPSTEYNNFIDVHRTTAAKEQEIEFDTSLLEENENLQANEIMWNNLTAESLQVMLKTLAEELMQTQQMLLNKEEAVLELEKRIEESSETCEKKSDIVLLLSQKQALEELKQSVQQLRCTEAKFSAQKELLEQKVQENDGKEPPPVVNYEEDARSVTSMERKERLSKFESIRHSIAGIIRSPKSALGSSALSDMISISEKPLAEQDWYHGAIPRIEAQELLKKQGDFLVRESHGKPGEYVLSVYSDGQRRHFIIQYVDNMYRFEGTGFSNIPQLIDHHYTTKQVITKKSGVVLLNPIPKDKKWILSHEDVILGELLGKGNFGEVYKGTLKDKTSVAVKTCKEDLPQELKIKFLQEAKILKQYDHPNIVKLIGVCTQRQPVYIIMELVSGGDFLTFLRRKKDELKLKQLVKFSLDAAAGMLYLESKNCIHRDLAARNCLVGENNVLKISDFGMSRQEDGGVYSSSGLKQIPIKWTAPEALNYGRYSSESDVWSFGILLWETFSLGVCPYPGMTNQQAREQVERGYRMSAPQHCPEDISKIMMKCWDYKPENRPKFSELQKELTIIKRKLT

FLT1 (human) = FLT1 (human) (UniProt P17948)
[1] = test system: FLT3 (human), P36888 [N841I]
HCK (human) = HCK (human) (UniProt P08631)
Chain of HCK (human) (P08631 whole entry, looked up): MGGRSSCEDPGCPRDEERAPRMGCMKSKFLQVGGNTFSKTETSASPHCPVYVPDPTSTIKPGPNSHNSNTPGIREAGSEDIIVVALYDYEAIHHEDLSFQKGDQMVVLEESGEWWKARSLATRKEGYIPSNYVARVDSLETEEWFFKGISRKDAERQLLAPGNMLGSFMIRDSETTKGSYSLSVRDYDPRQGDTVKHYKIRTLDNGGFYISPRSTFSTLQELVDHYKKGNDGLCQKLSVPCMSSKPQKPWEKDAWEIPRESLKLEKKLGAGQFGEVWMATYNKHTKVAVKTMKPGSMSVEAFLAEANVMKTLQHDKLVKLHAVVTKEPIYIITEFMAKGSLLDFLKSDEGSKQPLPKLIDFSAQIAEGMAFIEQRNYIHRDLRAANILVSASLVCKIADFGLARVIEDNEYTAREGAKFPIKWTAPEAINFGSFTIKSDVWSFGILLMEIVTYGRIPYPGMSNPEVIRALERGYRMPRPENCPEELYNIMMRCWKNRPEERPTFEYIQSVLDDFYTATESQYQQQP

HIPK2 (human) = HIPK2 (human) (UniProt Q9H2X6)
HUNK (human) = HUNK (human) (UniProt P57058)
IRAK1 (human) = IRAK1 (human) (UniProt P51617)
KDR (human) = KDR (human) (UniProt P35968)
LYN (human) = LYN (human) (UniProt P07948)
MAP3K1 (human) = MAP3K1 (human) (UniProt Q13233)
MAPK14 (human) = MAPK14 (human) (UniProt Q16539)
MARK1 (human) = MARK1 (human) (UniProt Q9P0L2)
Chain of MARK1 (human) (Q9P0L2 whole entry, looked up): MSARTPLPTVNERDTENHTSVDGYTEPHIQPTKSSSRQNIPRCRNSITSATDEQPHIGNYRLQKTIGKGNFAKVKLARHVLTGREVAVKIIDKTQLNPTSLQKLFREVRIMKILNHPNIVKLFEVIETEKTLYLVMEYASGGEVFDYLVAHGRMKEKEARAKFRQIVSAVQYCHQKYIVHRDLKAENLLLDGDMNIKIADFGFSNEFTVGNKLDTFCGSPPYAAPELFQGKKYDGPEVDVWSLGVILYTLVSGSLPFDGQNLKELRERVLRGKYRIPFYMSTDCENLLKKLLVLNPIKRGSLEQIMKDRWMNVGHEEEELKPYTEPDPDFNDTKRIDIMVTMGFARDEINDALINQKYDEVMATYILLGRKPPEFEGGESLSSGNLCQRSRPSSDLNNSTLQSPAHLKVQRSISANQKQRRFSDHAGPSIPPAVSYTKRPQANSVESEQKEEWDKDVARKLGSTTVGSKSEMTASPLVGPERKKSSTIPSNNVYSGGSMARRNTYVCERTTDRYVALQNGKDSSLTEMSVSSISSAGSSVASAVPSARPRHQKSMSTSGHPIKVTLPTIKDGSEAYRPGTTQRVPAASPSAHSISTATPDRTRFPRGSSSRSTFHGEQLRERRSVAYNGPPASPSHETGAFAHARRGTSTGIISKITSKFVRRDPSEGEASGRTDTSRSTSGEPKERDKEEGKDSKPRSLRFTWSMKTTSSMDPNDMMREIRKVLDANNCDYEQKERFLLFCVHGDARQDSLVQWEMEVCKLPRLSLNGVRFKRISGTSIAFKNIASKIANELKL

[2] = test system: MET (human), P08581 [M1250T]
[3] = test system: MET (human), P08581 [Y1235D]
MKNK2 (human) = MKNK2 (human) (UniProt Q9HBH9)
MST4 (human) = MST4 (human) (UniProt Q9P289)
Chain of MST4 (human) (Q9P289 whole entry, looked up): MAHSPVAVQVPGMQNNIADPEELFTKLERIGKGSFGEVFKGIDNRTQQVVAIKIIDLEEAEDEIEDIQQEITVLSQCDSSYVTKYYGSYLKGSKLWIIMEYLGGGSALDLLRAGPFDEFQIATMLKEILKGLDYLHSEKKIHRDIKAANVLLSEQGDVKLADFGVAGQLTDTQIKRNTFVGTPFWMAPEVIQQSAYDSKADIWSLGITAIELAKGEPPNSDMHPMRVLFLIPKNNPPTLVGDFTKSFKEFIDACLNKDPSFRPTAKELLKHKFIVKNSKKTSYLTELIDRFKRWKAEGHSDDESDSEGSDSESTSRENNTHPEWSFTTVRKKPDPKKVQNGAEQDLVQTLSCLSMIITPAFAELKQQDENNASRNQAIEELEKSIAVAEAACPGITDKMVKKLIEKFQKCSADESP

MYLK (human) = MYLK (human) (UniProt Q15746)
MYLK4 (human) = MYLK4 (human) (UniProt Q86YV6)
NUAK1 (human) = NUAK1 (human) (UniProt O60285)
PAK2 (human) = PAK2 (human) (UniProt Q13177)
PAK3 (human) = PAK3 (human) (UniProt O75914)
[4] = test system: PIK3CA (human), P42336 [Q546K]
PIK3CB (human) = PIK3CB (human) (UniProt P42338)
PLK2 (human) = PLK2 (human) (UniProt Q9NYY3)
Chain of PLK2 (human) (Q9NYY3 whole entry, looked up): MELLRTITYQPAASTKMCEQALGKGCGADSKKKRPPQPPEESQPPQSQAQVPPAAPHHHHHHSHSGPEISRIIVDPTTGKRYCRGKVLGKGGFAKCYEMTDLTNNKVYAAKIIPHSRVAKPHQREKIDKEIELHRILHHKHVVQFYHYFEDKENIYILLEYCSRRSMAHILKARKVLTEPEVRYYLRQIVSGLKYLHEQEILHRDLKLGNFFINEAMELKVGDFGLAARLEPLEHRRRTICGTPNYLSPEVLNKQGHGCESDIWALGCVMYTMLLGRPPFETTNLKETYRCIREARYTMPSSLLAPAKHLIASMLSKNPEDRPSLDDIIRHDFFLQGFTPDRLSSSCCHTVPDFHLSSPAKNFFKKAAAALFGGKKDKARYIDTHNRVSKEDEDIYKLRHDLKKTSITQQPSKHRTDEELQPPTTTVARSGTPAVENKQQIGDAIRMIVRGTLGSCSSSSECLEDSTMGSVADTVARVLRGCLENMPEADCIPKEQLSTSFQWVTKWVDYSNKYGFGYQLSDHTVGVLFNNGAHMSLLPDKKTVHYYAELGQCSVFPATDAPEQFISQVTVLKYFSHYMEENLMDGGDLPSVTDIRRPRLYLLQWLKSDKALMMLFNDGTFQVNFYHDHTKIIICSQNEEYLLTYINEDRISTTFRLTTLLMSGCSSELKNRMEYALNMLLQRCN

PRPF4B (human) = PRPF4B (human) (UniProt Q13523)
SBK1 (human) = SBK1 (human) (UniProt Q52WX2)
SIK2 (human) = SIK2 (human) (UniProt Q9H0K1)
SRC (human) = SRC (human) (UniProt P12931)
STK32C (human) = STK32C (human) (UniProt Q86UX6)
Chain of STK32C (human) (Q86UX6 whole entry, looked up): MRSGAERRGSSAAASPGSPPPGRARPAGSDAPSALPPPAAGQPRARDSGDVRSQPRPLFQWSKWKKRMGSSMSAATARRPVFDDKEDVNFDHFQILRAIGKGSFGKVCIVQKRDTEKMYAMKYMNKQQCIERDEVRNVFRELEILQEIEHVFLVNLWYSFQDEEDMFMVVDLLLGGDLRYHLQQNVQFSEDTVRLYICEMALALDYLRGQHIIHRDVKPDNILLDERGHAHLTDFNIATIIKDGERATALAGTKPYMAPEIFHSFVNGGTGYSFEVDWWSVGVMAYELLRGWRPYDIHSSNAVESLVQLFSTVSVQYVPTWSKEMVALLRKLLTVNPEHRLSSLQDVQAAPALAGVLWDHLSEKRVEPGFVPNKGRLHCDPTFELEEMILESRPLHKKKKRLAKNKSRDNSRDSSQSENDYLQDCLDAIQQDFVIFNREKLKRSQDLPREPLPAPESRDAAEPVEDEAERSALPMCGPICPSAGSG

STK4 (human) = STK4 (human) (UniProt Q13043)
Chain of STK4 (human) (Q13043 whole entry, looked up): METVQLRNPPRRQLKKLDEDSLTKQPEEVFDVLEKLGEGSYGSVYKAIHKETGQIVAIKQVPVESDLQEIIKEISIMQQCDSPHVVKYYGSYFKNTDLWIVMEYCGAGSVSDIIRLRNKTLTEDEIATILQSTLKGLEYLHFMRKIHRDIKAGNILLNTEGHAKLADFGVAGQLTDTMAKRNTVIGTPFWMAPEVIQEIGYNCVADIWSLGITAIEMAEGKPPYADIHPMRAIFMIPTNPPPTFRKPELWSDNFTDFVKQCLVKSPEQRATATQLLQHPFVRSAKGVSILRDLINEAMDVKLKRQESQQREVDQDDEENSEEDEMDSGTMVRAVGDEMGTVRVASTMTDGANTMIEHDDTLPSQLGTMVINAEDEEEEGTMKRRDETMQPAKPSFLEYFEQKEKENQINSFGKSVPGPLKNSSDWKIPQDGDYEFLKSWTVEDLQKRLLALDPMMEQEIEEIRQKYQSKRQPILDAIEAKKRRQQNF

TEC (human) = TEC (human) (UniProt P42680)
ULK2 (human) = ULK2 (human) (UniProt Q8IYT8)
YES1 (human) = YES1 (human) (UniProt P07947)

Chain of DAPK2 (human) (Q9UIK4 whole entry, looked up): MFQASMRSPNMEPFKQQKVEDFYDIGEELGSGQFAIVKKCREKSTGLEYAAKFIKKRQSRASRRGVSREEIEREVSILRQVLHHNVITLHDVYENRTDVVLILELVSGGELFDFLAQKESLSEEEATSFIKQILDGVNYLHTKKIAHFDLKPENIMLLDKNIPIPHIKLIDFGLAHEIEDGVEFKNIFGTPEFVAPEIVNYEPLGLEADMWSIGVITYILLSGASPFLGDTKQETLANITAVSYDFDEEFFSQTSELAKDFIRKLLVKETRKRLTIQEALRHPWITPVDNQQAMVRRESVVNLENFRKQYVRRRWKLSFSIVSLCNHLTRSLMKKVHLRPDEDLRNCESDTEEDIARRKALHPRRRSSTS
Chain of CSNK1D (human) (P48730 whole entry, looked up): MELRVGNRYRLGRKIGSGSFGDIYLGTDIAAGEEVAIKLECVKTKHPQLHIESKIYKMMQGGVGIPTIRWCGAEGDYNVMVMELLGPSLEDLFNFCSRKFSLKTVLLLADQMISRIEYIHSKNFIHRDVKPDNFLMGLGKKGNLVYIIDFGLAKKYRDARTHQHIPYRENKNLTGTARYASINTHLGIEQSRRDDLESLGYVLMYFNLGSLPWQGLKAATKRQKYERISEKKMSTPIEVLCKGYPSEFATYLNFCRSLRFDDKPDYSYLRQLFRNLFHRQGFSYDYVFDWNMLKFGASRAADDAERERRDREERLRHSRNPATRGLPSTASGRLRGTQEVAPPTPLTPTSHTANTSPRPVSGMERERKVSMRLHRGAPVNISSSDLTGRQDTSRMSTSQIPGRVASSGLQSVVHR

Work on `O=C1Nc2cc(Br)ccc2/C1=C1/Nc2ccccc2/C1=N\O` yielded a kinase still bound, per cent of control (ACVR2B (human)) of 20%, a kinase still bound, per cent of control (ADCK3 (human)) of 80% and a kinase still bound, per cent of control (BMX (human)) of 42%. It also gave a kinase still bound, per cent of control (CDC2L2 (human)) of 100%, a kinase still bound, per cent of control (CDK14 (human)) of 18% and a kinase still bound, per cent of control (CDK9 (human)) of 26%. The kinase still bound, per cent of control (CSNK1D (human)) was 21%, the kinase still bound, per cent of control (DAPK2 (human)) was 2.6% and the kinase still bound, per cent of control (DCLK3 (human)) was 8%. The kinase still bound, per cent of control (FER (human)) was 100%, the kinase still bound, per cent of control (FLT1 (human)) was 1.3% and the kinase still bound, per cent of control [1] was 0%. The kinase still bound, per cent of control (HCK (human)) was 1.2%, the kinase still bound, per cent of control (HIPK2 (human)) was 7.4% and the kinase still bound, per cent of control (HUNK (human)) was 79%. The kinase still bound, per cent of control (IRAK1 (human)) was 39%, the kinase still bound, per cent of control (KDR (human)) was 0.9% and the kinase still bound, per cent of control (LYN (human)) was 6.2%. It also gave a kinase still bound, per cent of control (MAP3K1 (human)) of 100%, a kinase still bound, per cent of control (MAPK14 (human)) of 92% and a kinase still bound, per cent of control (MARK1 (human)) of 38%. The kinase still bound, per cent of control [2] was 87%, the kinase still bound, per cent of control [3] was 100% and the kinase still bound, per cent of control (MKNK2 (human)) was 28%. For the same compound, the kinase still bound, per cent of control (MST4 (human)) was 35%, the kinase still bound, per cent of control (MYLK (human)) was 6.5% and the kinase still bound, per cent of control (MYLK4 (human)) was 7.3%. The kinase still bound, per cent of control (NUAK1 (human)) was 12%, the kinase still bound, per cent of control (PAK2 (human)) was 40% and the kinase still bound, per cent of control (PAK3 (human)) was 7.7%. It also gave a kinase still bound, per cent of control [4] of 100%, a kinase still bound, per cent of control (PIK3CB (human)) of 88% and a kinase still bound, per cent of control (PLK2 (human)) of 87%. For the same compound, the kinase still bound, per cent of control (PRPF4B (human)) was 13%, the kinase still bound, per cent of control (SBK1 (human)) was 61% and the kinase still bound, per cent of control (SIK2 (human)) was 8.2%. For the same compound, the kinase still bound, per cent of control (SRC (human)) was 0.15%, the kinase still bound, per cent of control (STK32C (human)) was 100% and the kinase still bound, per cent of control (STK4 (human)) was 6.5%. It also gave a kinase still bound, per cent of control (TEC (human)) of 100%, a kinase still bound, per cent of control (ULK2 (human)) of 35% and a kinase still bound, per cent of control (YES1 (human)) of 6.4%.
